US10815183B2, “Substituted aromatic compounds and pharmaceutical uses thereof” (PROMETIC PHARMA SMT LIMITED, priority 2009, dated 2020)

Legend:
[1] = Heart protection in 5/6 nephrectomized rats, blood pressure; type: in vivo; conditions: Nx rats (FIG. 7)
Description: (§1) Male 6 week-old Wistar rats were subjected to ⅚ nephrectomy or sham operations. Under fluothane anesthesia, renal ablation was achieved by removing two-thirds of the left kidney followed by a right unilateral nephrectomy 7 days later. Sham rats underwent exposition of the kidneys and removal of the perirenal fat. Twenty-one days after the first operation, rats were randomized in the study by their reduced glomerular filtration rate (GFR) of creatinine indicating a dysfunction of the kidney. Animals that underwent the sham operation were given vehicle (saline) and were used as controls. Nx animals were divided in groups receiving the vehicle or Compound I. Saline or Compound I was given by gastric gavage once daily up to the sacrifice. GFR was measured every three weeks in order to assess the severity of this end-stage renal disease model. Rats were sacrificed at day 190.

[2] = tested on: PGE2; test: LPS-induced inflammation in the rat air-pouch model, PGE2 in pouch exudates by ELISA; type: in vivo, Lewis rats
Description: LPS-induced inflammation in the rat air-pouch model is believed to mimic the pathological process occurring in joint diseases such as arthritis. This is because the connective tissues formed along the air pouch are similar to those found in chronic joint diseases. LPS-induced inflammation and chronic joint diseases share other features, including markedly elevated PGE2, neutrophil infiltration, cytokine formation, and tissue damage.
An air cavity was produced at day −6 by subcutaneous injection of 20 ml of sterile air into the […] area of the back of male Lewis rats (175-200 g). An additional 10 ml of air was injected into the cavity at day −3 to keep the space open. At day 0, compounds were administered intravenously and one hour later lipopolysaccharide (LPS: 2.5 ml, 2 μg/ml in PBS) was injected into the pouch to produce an inflammatory reaction. Two hours after treatment with LPS, animals were euthanized by CO2 asphyxiation and 5 ml of PBS/heparin (10 U/ml)/indomethacin (36 μg/ml) was injected into the pouch. The pouch fluid was collected and PGE2 was determined in the pouch exudates by ELISA.

[3] = tested on: bone marrow cells; test: Chemoprotection studies: bone marrow and blood cell counts in cyclophosphamide immunosuppressed mice (hematopoiesis/erythropoiesis); type: in vivo, C57BL/6 mice; conditions: for In Vivo Results: effect on hematopoiesis/erythropoiesis: degree of activity compared to the activity of compound I; for Red Blood Cells (10^9) / Red Bone Marrow Cells (10^6): mice, cyclophosphamide 200 mg/kg iv day 0, compound oral pre-treatment day -3, -2, -1, sacrifice day +5
Description: Female C57BL/6 mice, 6 to 8 week old, were immunosuppressed by treatment with 200 mg/kg of cyclophosphamide administered intravenously at day 0. To examine the immunoprotective effect of compound I, mice were pre-treated orally at day −3, −2 and −1 with the compound. Mice were sacrificed at day +5 by cardiac puncture and cervical dislocation. Then, a gross pathological observation of the femurs (as a source of bone marrow cells) was recorded. After the sacrifice, tissues were crushed in PBS buffer and cells were counted on a hemacytometer.
Additional compounds related to compound I were also prepared and tested for biological activity.

[4] = tested on: CTGF; type: in vivo, C57Bl/6 mice; conditions: pre-treatment, doxorubicin-treated mice (FIG. 12)
Description: (§2) C57Bl/6 mice (6-10 week-old) were treated with Compound I prophylacticly from day −3 to day 10 or treated therapeutically from day 1 to 10. Nephrotoxicity was induced by an intravenous injection of 10 mg/kg of doxorubicin at day 0. Serum albumin and creatinine were monitored at days 4, 7, 9 and 11.

[5] = Doxorubicin-induced nephrotoxicity model: serum albumin, serum creatinine, histological kidney lesions; type: in vivo, C57Bl/6 mice; conditions: for serum creatinine increase induced by doxorubicin: mice (FIG. 9)
Description: as §2
Doxorubicin is well known to induce nephro- and cardiotoxicity. FIG. 10 represents the histological kidney lesions score as determined by histochemistry in the doxorubicin-induced nephrotoxicity model.
Doxorubicin induces early lesions primarily at the tubular region. Toxicity is further extended to the glomerulus (around day 11 post-doxorubicin). FIG. 11 represents the histological micrographs of doxorubicin-induced lesions in control and Compound I-treated (prophylactic treatment) mice. Doxorubicin induces kidney cell apoptosis, fibrosis, sclerosis and accumulation of proteins in affected tubular regions.

[6] = Kidney protection in 5/6 nephrectomized (Nx) rat model, GFR (creatinine clearance); type: in vivo, Wistar rats
Description: as §1

[7] = tested on: TGF-β; test: TGF-β mRNA expression in kidneys from doxorubicin-treated mice; type: in vivo, C57Bl/6 mice
Description: as §2
CTGF is also regulated by TGF-β. FIG. 13 illustrates the mRNA expression of TGF-β in kidneys. Doxorubicin increases by 73% the mRNA expression of TGF-β in kidneys. Pre-treatment with Compound I induces a 26% decrease of TGF-β expression.

CCCCCc1cccc(CC(=O)[O-])c1.[Na+] [Compound I, Sodium Salt of 3-Pentylphenylacetic Acid]
blood pressure [1]: significant decrease | inhibition of PGE2 compared with positive control indomethacin ([2]; two hours after LPS): similar | inhibition of PGE2 ([2]; two hours after administration of LPS (FIG. 3)): significant inhibition | circulating red blood cells (in words) ([3]; cyclophosphamide immunosuppressed mice): increases | In Vivo Results: effect on hematopoiesis/erythropoiesis [3]: +++ (+++ designates 70 to 100% of compound I activity) | Red Blood Cells (10^9) [3]: 7.0 10^9 | Red Bone Marrow Cells (10^6) [3]: 11.5 10^6 | red bone marrow cell count (in words) ([3]; oral pre-treatment, cyclophosphamide immunosuppressed mice): increase | white bone marrow cell count ([3]; oral pre-treatment, cyclophosphamide immunosuppressed mice (FIG. 2)): increase | total bone marrow cell count ([3]; oral pre-treatment, cyclophosphamide treated mice (FIG. 1)): significant increase | CTGF expression in kidneys [4]: significant decrease | histological kidney lesions at the tubular level induced by doxorubicin ([5]; prophylactic (pre-doxorubicin) and therapeutic (post-doxorubicin) treatments (FIG. 10)): reduce the kidney lesions | protection of the kidney against doxorubicin toxicity (histological micrographs) ([5]; prophylactic or therapeutic treatment (FIG. 11)): protects the kidney | serum albumin decrease induced by doxorubicin ([5]; prophylactic treatment day -3 to day 10, oral, mice (FIG. 8)): inhibits the decrease | serum creatinine increase induced by doxorubicin ([5]; prophylactic treatment day -3 to day 10, oral): inhibits the increase | serum albumin level induced by doxorubicin ([5]; therapeutic treatment day 1 to 10, oral, mice (FIG. 8)): no effect | serum creatinine increase induced by doxorubicin ([5]; therapeutic treatment day 1 to 10, oral): inhibits the increase | improvement of GFR compared to initial GFR (before treatment) at day 21 ([6]; Nx rats over treatment period, Nx control 50% deterioration (FIG. 6)): 50% | improvement of GFR (creatinine clearance) ([6]; Nx rats, gastric gavage once daily, day 190 (FIG. 5)): two-fold | decrease of TGF-β expression in kidneys ([7]; pre-treatment, doxorubicin-treated mice (FIG. 13)): 26%

CCC/C=C/c1cccc(CC(=O)[O-])c1.[Na+] [Compound II, Sodium Salt of E-(3-pent-1-enyl-phenyl)acetic Acid]
In Vivo Results: effect on hematopoiesis/erythropoiesis [3]: +++ (+++ designates 70 to 100% of compound I activity)

CCCCCc1ccc(O)c(CC(=O)[O-])c1.[Na+] [Compound III, Sodium salt of (2-hydroxy-5-pentylphenyl)acetic Acid]
In Vivo Results: effect on hematopoiesis/erythropoiesis [3]: + (+ designates 5-40% of compound I activity)

CCCCCc1cc(CCC(=O)[O-])ccc1F.[Na+] [Compound IV, Sodium Salt of 3-(4-fluoro-3-pentylphenyl)propionic Acid]
In Vivo Results: effect on hematopoiesis/erythropoiesis [3]: +++ (+++ designates 70 to 100% of compound I activity)

CCCCc1cccc(CCC(=O)[O-])c1.[Na+] [Compound IX, Sodium Salt of 3-(3-butylphenyl)propionic Acid]
In Vivo Results: effect on hematopoiesis/erythropoiesis [3]: ++ (++ designates 40-70% of compound I activity)

CCCCCc1cccc(CCC(=O)[O-])c1.[Na+] [Compound V, Sodium Salt of 3-(3-pentylphenyl)propionic Acid]
In Vivo Results: effect on hematopoiesis/erythropoiesis [3]: ++ (++ designates 40-70% of compound I activity)

CCCCCc1cccc(C(C)(C)C(=O)[O-])c1.[Na+] [Compound VI, Sodium Salt of 2-Methyl-2-(3-pentylphenyl)propionic Acid]
In Vivo Results: effect on hematopoiesis/erythropoiesis [3]: ++ (++ designates 40-70% of compound I activity)

CCCCCc1cccc(C(CO)C(=O)[O-])c1.[Na+] (stereo not drawn) [Compound VII, Sodium Salt of 3-Hydroxy-2-(3-pentyl-phenyl)propionic Acid]
In Vivo Results: effect on hematopoiesis/erythropoiesis [3]: +++ (+++ designates 70 to 100% of compound I activity)

CCCCCc1cccc(C(C)C(=O)[O-])c1.[Na+] (stereo not drawn) [Compound VIII, Sodium Salt of 2-(3-pentylphenyl)propionic Acid]
In Vivo Results: effect on hematopoiesis/erythropoiesis [3]: ++ (++ designates 40-70% of compound I activity)

C/C=C\CCc1cccc(CC(=O)[O-])c1.[Na+] [Compound X, Sodium Salt of E/Z-(3-Pent-3-enylphenyl)acetic Acid]
In Vivo Results: effect on hematopoiesis/erythropoiesis [3]: +++ (+++ designates 70 to 100% of compound I activity)

CCCCCc1cc(O)cc(CC(=O)[O-])c1.[Na+] [Compound XI, Sodium Salt of [3-Hydroxy-5-pentylphenyl]acetic acid]
In Vivo Results: effect on hematopoiesis/erythropoiesis [3]: ++++ (++++ designates greater activity than compound I)

CCCCCc1ccc(C(=O)[O-])cc1.[Na+] [Compound XII, Sodium Salt of 4-Pentylbenzoic Acid]
In Vivo Results: effect on hematopoiesis/erythropoiesis [3]: ++ (++ designates 40-70% of compound I activity)

CCCCCCc1cccc(C(=O)[O-])c1.[Na+] [Compound XIII, Sodium Salt of 3-Hexylbenzoic Acid]
In Vivo Results: effect on hematopoiesis/erythropoiesis [3]: +++ (+++ designates 70 to 100% of compound I activity)

CCCCc1ccc2c(c1)CC(C(=O)[O-])C2.[Na+] (stereo not drawn) [Compound XIV, Sodium Salt of 5-Butylindan-2-carboxylc Acid]
In Vivo Results: effect on hematopoiesis/erythropoiesis [3]: ++ (++ designates 40-70% of compound I activity)

O=P1(N(CCCl)CCCl)NCCCO1 (stereo not drawn) [Cyclophosphamide, reference compound]
Red Blood Cells (10^9) [3]: 5.7 10^9 | Red Bone Marrow Cells (10^6) [3]: 8.1 10^6

COc1cccc2c1C(=O)c1c(O)c3c(c(O)c1C2=O)C[C@@](O)(C(=O)CO)C[C@@H]3O[C@H]1C[C@H](N)[C@H](O)[C@H](C)O1 [Doxorubicin, reference compound]
histological kidney lesions induced ([5]; doxorubicin 10 mg/kg iv day 0, mice, day 7 and 11): significant kidney lesions | increase of mRNA expression of TGF-β in kidneys ([7]; doxorubicin 10 mg/kg iv, mice): 73%

CCCCCc1cccc(CC(=O)[O-])n1.[Na+] [XVI]
In Vivo Results: effect on hematopoiesis/erythropoiesis [3]: ++ (++ designates 40-70% of compound I activity)

CCCC/C=C/c1cccc(CC(=O)[O-])c1.[Na+] [XV]
In Vivo Results: effect on hematopoiesis/erythropoiesis [3]: ++ (++ designates 40-70% of compound I activity)
